Test system: plants
Assay: Test D pre-emergence, other plants of Tables D1 and D3
Format: in vivo
Details: preemergent, 20 DAA
Protocol: A formulation containing 50 g/L of the test chemical was prepared by dissolving the active ingredient in a mixture of organic solvents and emulsifier, details of which are provided in the table. This formulation was then mixed with a small, variable amount of acetone to aid dissolution, before addition of a 0.2% v/v aqueous solution of an adjuvant, as the aqueous diluent, to form an aqueous spray solution which contains a predetermined concentration of the active ingredient.
This aqueous spray solution was then sprayed onto plants including maize and wheat that had been seed treated with a herbicide safener, after one day's cultivation (for pre-emergence) or after about 12 days' cultivation (for post-emergence). The plants were grown from seeds sown in standard soil, placed in a glasshouse under controlled conditions (at 24/18° C. or 20/16° C., day/night; 16 h light; 65% humidity). After spray application the plants were then grown in a glasshouse under the same conditions and watered twice daily. After 15 d for post-emergence and 20 DAA for pre-emergence the test was evaluated (100=total damage to plant; 0=no damage to plant).

CN1CC(c2cc(C(F)(F)F)n(C)n2)C(C(=O)Nc2ccc(F)c(F)c2F)C1=O (racemic) [Compound 17]
damage to plant (100=total damage to plant; 0=no damage to plant), ABUTH (rate 15): 0 | damage to plant (100=total damage to plant; 0=no damage to plant), ABUTH (rate 30): 0 | damage to plant (100=total damage to plant; 0=no damage to plant), ABUTH (rate 60): 0 | damage to plant (100=total damage to plant; 0=no damage to plant), ABUTH (rate 130): 0 | damage to plant (100=total damage to plant; 0=no damage to plant), ABUTH (rate 250): 0 | damage to plant (100=total damage to plant; 0=no damage to plant), ABUTH (rate 500): 10 | damage to plant (100=total damage to plant; 0=no damage to plant), AMARE (rate 15): 0 | damage to plant (100=total damage to plant; 0=no damage to plant), AMARE (rate 30): 0 | damage to plant (100=total damage to plant; 0=no damage to plant), AMARE (rate 60): 0 | damage to plant (100=total damage to plant; 0=no damage to plant), AMARE (rate 130): 0 | damage to plant (100=total damage to plant; 0=no damage to plant), AMARE (rate 250): 0 | damage to plant (100=total damage to plant; 0=no damage to plant), AMARE (rate 500): 0 | damage to plant (100=total damage to plant; 0=no damage to plant), BIDPI (rate 15): 0 | damage to plant (100=total damage to plant; 0=no damage to plant), BIDPI (rate 30): 0 | damage to plant (100=total damage to plant; 0=no damage to plant), BIDPI (rate 60): 0 | damage to plant (100=total damage to plant; 0=no damage to plant), BIDPI (rate 130): 0 | damage to plant (100=total damage to plant; 0=no damage to plant), BIDPI (rate 250): 0 | damage to plant (100=total damage to plant; 0=no damage to plant), BIDPI (rate 500): 0 | damage to plant (100=total damage to plant; 0=no damage to plant), BRAPL (rate 15): 20 | damage to plant (100=total damage to plant; 0=no damage to plant), BRAPL (rate 30): 60 | damage to plant (100=total damage to plant; 0=no damage to plant), BRAPL (rate 60): 80 | damage to plant (100=total damage to plant; 0=no damage to plant), BRAPL (rate 130): 80 | damage to plant (100=total damage to plant; 0=no damage to plant), BRAPL (rate 250): 80 | damage to plant (100=total damage to plant; 0=no damage to plant), BRAPL (rate 500): 90 | damage to plant (100=total damage to plant; 0=no damage to plant), CYPES (rate 15): 0 | damage to plant (100=total damage to plant; 0=no damage to plant), CYPES (rate 30): 0 | damage to plant (100=total damage to plant; 0=no damage to plant), CYPES (rate 60): 0 | damage to plant (100=total damage to plant; 0=no damage to plant), CYPES (rate 130): 0 | damage to plant (100=total damage to plant; 0=no damage to plant), CYPES (rate 250): 0 | damage to plant (100=total damage to plant; 0=no damage to plant), CYPES (rate 500): 0 | damage to plant (100=total damage to plant; 0=no damage to plant), DIGSA (rate 15): 30 | damage to plant (100=total damage to plant; 0=no damage to plant), DIGSA (rate 30): 90 | damage to plant (100=total damage to plant; 0=no damage to plant), DIGSA (rate 60): 90 | damage to plant (100=total damage to plant; 0=no damage to plant), DIGSA (rate 130): 90 | damage to plant (100=total damage to plant; 0=no damage to plant), DIGSA (rate 250): 90 | damage to plant (100=total damage to plant; 0=no damage to plant), DIGSA (rate 500): 90 | damage to plant (100=total damage to plant; 0=no damage to plant), ECHCG (rate 15): 0 | damage to plant (100=total damage to plant; 0=no damage to plant), ECHCG (rate 30): 90 | damage to plant (100=total damage to plant; 0=no damage to plant), ECHCG (rate 60): 90 | damage to plant (100=total damage to plant; 0=no damage to plant), ECHCG (rate 130): 90 | damage to plant (100=total damage to plant; 0=no damage to plant), ECHCG (rate 250): 100 | damage to plant (100=total damage to plant; 0=no damage to plant), ECHCG (rate 500): 100 | damage to plant (100=total damage to plant; 0=no damage to plant), ELEIN (rate 15): 0 | damage to plant (100=total damage to plant; 0=no damage to plant), ELEIN (rate 30): 0 | damage to plant (100=total damage to plant; 0=no damage to plant), ELEIN (rate 60): 0 | damage to plant (100=total damage to plant; 0=no damage to plant), ELEIN (rate 130): 0 | damage to plant (100=total damage to plant; 0=no damage to plant), ELEIN (rate 250): 0 | damage to plant (100=total damage to plant; 0=no damage to plant), ELEIN (rate 500): 0 | damage to plant (100=total damage to plant; 0=no damage to plant), EPHHL (rate 15): 0 | damage to plant (100=total damage to plant; 0=no damage to plant), EPHHL (rate 30): 0 | damage to plant (100=total damage to plant; 0=no damage to plant), EPHHL (rate 60): 0 | damage to plant (100=total damage to plant; 0=no damage to plant), EPHHL (rate 130): 0 | damage to plant (100=total damage to plant; 0=no damage to plant), EPHHL (rate 250): 0 | damage to plant (100=total damage to plant; 0=no damage to plant), EPHHL (rate 500): 10 | damage to plant (100=total damage to plant; 0=no damage to plant), GLXMA (rate 15): 0 | damage to plant (100=total damage to plant; 0=no damage to plant), GLXMA (rate 30): 0 | damage to plant (100=total damage to plant; 0=no damage to plant), GLXMA (rate 60): 0 | damage to plant (100=total damage to plant; 0=no damage to plant), GLXMA (rate 130): 0 | damage to plant (100=total damage to plant; 0=no damage to plant), GLXMA (rate 250): 0 | damage to plant (100=total damage to plant; 0=no damage to plant), GLXMA (rate 500): 0 | damage to plant (100=total damage to plant; 0=no damage to plant), IPOHE (rate 15): 0 | damage to plant (100=total damage to plant; 0=no damage to plant), IPOHE (rate 30): 0 | damage to plant (100=total damage to plant; 0=no damage to plant), IPOHE (rate 60): 0 | damage to plant (100=total damage to plant; 0=no damage to plant), IPOHE (rate 130): 0 | damage to plant (100=total damage to plant; 0=no damage to plant), IPOHE (rate 250): 0 | damage to plant (100=total damage to plant; 0=no damage to plant), IPOHE (rate 500): 0 | damage to plant (100=total damage to plant; 0=no damage to plant), ORYSA (rate 15): 0 | damage to plant (100=total damage to plant; 0=no damage to plant), ORYSA (rate 30): 0 | damage to plant (100=total damage to plant; 0=no damage to plant), ORYSA (rate 60): 0 | damage to plant (100=total damage to plant; 0=no damage to plant), ORYSA (rate 130): 0 | damage to plant (100=total damage to plant; 0=no damage to plant), ORYSA (rate 250): 0 | damage to plant (100=total damage to plant; 0=no damage to plant), ORYSA (rate 500): 0 | damage to plant (100=total damage to plant; 0=no damage to plant), PANMI (rate 15): 0 | damage to plant (100=total damage to plant; 0=no damage to plant), PANMI (rate 30): 0 | damage to plant (100=total damage to plant; 0=no damage to plant), PANMI (rate 60): 0 | damage to plant (100=total damage to plant; 0=no damage to plant), PANMI (rate 130): 0 | damage to plant (100=total damage to plant; 0=no damage to plant), PANMI (rate 250): 0 | damage to plant (100=total damage to plant; 0=no damage to plant), PANMI (rate 500): 0 | damage to plant (100=total damage to plant; 0=no damage to plant), SETFA (rate 15): 0 | damage to plant (100=total damage to plant; 0=no damage to plant), SETFA (rate 30): 80 | damage to plant (100=total damage to plant; 0=no damage to plant), SETFA (rate 60): 90 | damage to plant (100=total damage to plant; 0=no damage to plant), SETFA (rate 130): 90 | damage to plant (100=total damage to plant; 0=no damage to plant), SETFA (rate 250): 90 | damage to plant (100=total damage to plant; 0=no damage to plant), SETFA (rate 500): 90 | damage to plant (100=total damage to plant; 0=no damage to plant), SORVU (rate 15): 0 | damage to plant (100=total damage to plant; 0=no damage to plant), SORVU (rate 30): 0 | damage to plant (100=total damage to plant; 0=no damage to plant), SORVU (rate 60): 0 | damage to plant (100=total damage to plant; 0=no damage to plant), SORVU (rate 130): 0 | damage to plant (100=total damage to plant; 0=no damage to plant), SORVU (rate 250): 0

Reference: patent publication US20220281848A1, “PYRAZOLE-SUBSTITUTED PYRROLIDINONES AS HERBICIDES” (FMC Corporation, priority 2019, published 2022)
